Consider 9 compounds from patent publication US11358953B2, “Functionalized peptides as antiviral agents” (ENANTA PHARMACEUTICALS, INC., priority 2020, dated 2022).

Bounds are passed on as bounds.

In this experiment the target is SARS-CoV-2 3CL-protease (Severe acute respiratory syndrome coronavirus 2 (2019-nCoV) (SARS-CoV-2), UniProt P0DTD1). Put plainly: SARS-CoV-2 3C-like (3CL) protease fluorescence assay (FRET). In kind it is biochemical. The following applies: recombinant SARS-CoV-2 3CL-protease 10 nM, 30 min preincubation at RT, substrate 40 μM, duplicate.
Regarding `O=C(NC1CCCCC1)C(=O)[C@H](C[C@@H]1CCNC1=O)NC(=O)[C@@H]1[C@H]2CCC[C@H]2CN1C(=O)c1cc2c(OC(F)F)cccc2[nH]1` [Ex8, (1S,3aR,6aS)—N—((S)-4-(cyclohexylamino)-3,4-dioxo-1-((S)-2-oxopyrrolidin-3-yl)butan-2-yl)-2-(4-(difluoromethoxy)-1H-indole-2-carbonyl)octahydrocyclopenta[c]pyrrole-1-carboxamide], the IC50 is under 100 nM. As to `CC(C)(C)C(=O)N[C@H](C(=O)N1C[C@H]2[C@@H]([C@H]1C(=O)N[C@H](C#N)C[C@@H]1CCNC1=O)C2(C)C)C(C)(C)C` [Ex28, (1R,2S,5S)—N—((S)-1-cyano-2-((S)-2-oxopyrrolidin-3-yl)ethyl)-3-((S)-3,3-dimethyl-2-pivalamidobutanoyl)-6,6-dimethyl-3-azabicyclo[3.1.0]hexane-2-carboxamide], the IC50 was under 100 nM.

For the compound `CC(C)C(=O)N[C@H](C(=O)N1C[C@H]2[C@@H]([C@H]1C(=O)N[C@H](C#N)C[C@@H]1CCNC1=O)C2(C)C)C(C)(C)C` [Ex27, (1R,2S,5S)—N—((S)-1-cyano-2-((S)-2-oxopyrrolidin-3-yl)ethyl)-3-((S)-2-isobutyramido-3,3-dimethylbutanoyl)-6,6-dimethyl-3-azabicyclo[3.1.0]hexane-2-carboxamide], the IC50 was under 100 nM. `COc1cccc2[nH]c(C(=O)N3C[C@@H]4CCC[C@@H]4[C@H]3C(=O)N[C@@H](C[C@@H]3CCNC3=O)C(=O)COC(=O)c3c(Cl)cccc3Cl)cc12` [Ex2, (S)-3-((1S,3aR,6aS)-2-(4-methoxy-1H-indole-2-carbonyl)octahydrocyclopenta[c]pyrrole-1-carboxamido)-2-oxo-4-((S)-2-oxopyrrolidin-3-yl)butyl 2,6-dichlorobenzoate]: the IC50 was under 100 nM. In the case of `O=C[C@H](C[C@@H]1CCNC1=O)NC(=O)[C@@H]1[C@H]2CCC[C@H]2CN1C(=O)c1cc2c(OC(F)F)cccc2[nH]1` [Ex5, (1S,3aR,6aS)-2-(4-(difluoromethoxy)-1H-indole-2-carbonyl)-N—((S)-1-oxo-3-((S)-2-oxopyrrolidin-3-yl)propan-2-yl)octahydrocyclopenta[c]pyrrole-1-carboxamide] it was under 100 nM; in that of `CC1(C)[C@@H]2[C@@H](C(=O)N[C@H](C#N)C[C@@H]3CCNC3=O)N(C(=O)c3cc4c(F)ccc(F)c4[nH]3)C[C@@H]21` [Ex20, (1R,2S,5S)—N—((S)-1-cyano-2-((S)-2-oxopyrrolidin-3-yl)ethyl)-3-(4,7-difluoro-1H-indole-2-carbonyl)-6,6-dimethyl-3-azabicyclo[3.1.0]hexane-2-carboxamide], 100 to 1000 nM. To `CC1(C)[C@@H]2[C@@H](C(=O)N[C@H](C#N)C[C@@H]3CCNC3=O)N(C(=O)c3cc4c(F)cc(F)cc4[nH]3)C[C@@H]21` [Ex18, (1R,2S,5S)—N—((S)-1-cyano-2-((S)-2-oxopyrrolidin-3-yl)ethyl)-3-(4,6-difluoro-1H-indole-2-carbonyl)-6,6-dimethyl-3-azabicyclo[3.1.0]hexane-2-carboxamide] belongs 100 to 1000 nM. Turning to `N#C[C@H](C[C@@H]1CCNC1=O)NC(=O)[C@@H]1C[C@H](Oc2ccccc2)CN1C(=O)c1cc2c(OC(F)F)cccc2[nH]1` [Ex19, (2S,4S)—N—((S)-1-cyano-2-((S)-2-oxopyrrolidin-3-yl)ethyl)-1-(4-(difluoromethoxy)-1H-indole-2-carbonyl)-4-phenoxypyrrolidine-2-carboxamide], the IC50 was over 1000 nM. Turning to `CC1(C)[C@@H]2[C@@H](C(=O)N[C@H](C#N)C[C@@H]3CCNC3=O)N(C(=O)c3cc4c(Cl)cccc4[nH]3)C[C@@H]21` [Ex21, (1R,2S,5S)-3-(4-chloro-1H-indole-2-carbonyl)-N—((S)-1-cyano-2-((S)-2-oxopyrrolidin-3-yl)ethyl)-6,6-dimethyl-3-azabicyclo[3.1.0]hexane-2-carboxamide], the IC50 lay within 100 to 1000 nM.

For orientation: IC50 means the concentration at which inhibition is half-maximal.
